Elastase inhibitory effects data for 1 molecule are collected here from patent US8491946B2, “Elastase inhibitor” (Shiseido Company, Ltd., priority 2010, dated 2013).

“Also recorded” adds a separate entry of the source.

This assay concerns the target T1, Human leukocyte-derived elastase (Homo sapiens, UniProt P08246).
T1 construct: purchased Elastin Product Co., Inc. CK828; host or cells: human leukocytes (leukocyte-derived)
T1 sequence (P08246 30-247 limits assumed): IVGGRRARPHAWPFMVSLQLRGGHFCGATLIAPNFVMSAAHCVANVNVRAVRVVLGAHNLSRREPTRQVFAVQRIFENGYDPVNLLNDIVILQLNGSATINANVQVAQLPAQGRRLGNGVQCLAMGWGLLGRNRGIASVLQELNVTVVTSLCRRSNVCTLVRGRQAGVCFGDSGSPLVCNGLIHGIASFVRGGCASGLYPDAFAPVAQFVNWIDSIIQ
The assay can be described thus: elastase inhibition assay with fluorogenic substrate. In kind it is biochemical. The note with it: FIG. 1; drug alone or raspberry extract combined with hydroxyproline; 60 minutes at 37° C. As to the method:
A solution containing 0.1 M HEPES and 0.5 M NaCl (pH 7.5) was used as a reaction buffer. Oxysuccinyl-(Ala)2-Pro-Val-MCA (Peptide Institute Cat. No. 3153-v) was used for the elastase substrate and dissolved in DMSO to a concentration of 80 mM followed by diluting to 0.16 mM with the reaction buffer. Human leukocyte-derived elastase (Elastin Product Co., Inc. Cat No. CK828) was diluted to 5 μg/mL with the reaction buffer.
25 μL aliquots of the 0.16 mM elastase substrate were dispensed into the wells of a 96-well plate followed by the addition of 50 μL of each drug. Next, 25 μL of ice-cooled 5 μg/mL elastase were added and incubated for 60 minutes at 37° C. followed by measuring fluorescence at 460 nm at an exciting wavelength of 369 nm. Raspberry extract BG manufactured by Maruzen Pharmaceuticals was used for the raspberry extract, L-hydroxyproline manufactured by Kyowa Hakko was used for the hydroxyproline, and Biodyne EMPP™ manufactured by Arch Personal Care Products L.P. was used for the yeast extract. Raspberry extract BG is a 1,3-butyleneglycol (50% aqueous solution) extract of raspberry fruit.

With `O=C(O)[C@@H]1C[C@@H](O)CN1` [hydroxyproline, L-hydroxyproline], the elastase inhibitory effects result is on record as “elastase inhibitory effects were not demonstrated; also recorded: does not demonstrate elastase inhibitory effects alone”.
